The values below come from paper PMC12203311, “Design, synthesis, in silico and in vitro evaluation of pyrrole–indole hybrids as dual tubulin and aromatase inhibitors with potent anticancer activities” (RSC Advances, 2025).

One may read the IC50 as the midpoint of a concentration-inhibition curve. A high value points to weaker potency.

Data set [1] has as its system T47D breast cancer cell line. Briefly: Cytotoxicity MTT assay, T47D. Format: cell-based, human. As to conditions: for IC50: MTT, 48 hours; for activity against T47D in two-dose screen: 10 µM and 50 µM. As for the experimental part: (§1) T47D (ATCC HTB-133) was purchased from Biomedia (Thailand) Co., LTD. L929 (ATCC CCL-1) was received as a gift from Prof. Tanapat Palaga, Department of Microbiology, Faculty of Science, Chulalongkorn University, Bangkok, Thailand. The cells were cultured in Dulbecco's Modified Eagle's Medium (DMEM; Gibco) supplemented with 10% fetal bovine serum (FBS; HyClone), 100 U mL^−1 penicillin and 100 µg mL^−1 streptomycin (Gibco) at 37 °C with 5% CO2.
(§2) The antiproliferative activity was determined by MTT assay. Briefly, the cells were plated into a 96-well microplate at the density of 10 000 cells per well. The cells were allowed to grow overnight before treated with the solutions of compounds in culture medium at the designated concentrations for 48 hours. The medium was then replaced with MTT solution (0.5 mg mL^−1 MTT in culture medium) and incubated for 3 hours. A 100 µL of DMSO was used to dissolve the produced formazan. Absorbance at 570 nm was then measured using a microplate reader (Varioskan™ LUX multimode microplate reader, Thermo Scientific™). Percent viability was calculated relative to the vehicle control (DMSO).
On the technique in general: Formazan colour is commonly taken as a measure of viable cells.

Data set [2] has as its target T1, Human CYP19 (aromatase) (Homo sapiens, UniProt P11511).
T1 construct: purchased GENTEST, Woburn, MA 456260; host or cells: baculovirus/insect cells
T1 sequence (P11511 1-503): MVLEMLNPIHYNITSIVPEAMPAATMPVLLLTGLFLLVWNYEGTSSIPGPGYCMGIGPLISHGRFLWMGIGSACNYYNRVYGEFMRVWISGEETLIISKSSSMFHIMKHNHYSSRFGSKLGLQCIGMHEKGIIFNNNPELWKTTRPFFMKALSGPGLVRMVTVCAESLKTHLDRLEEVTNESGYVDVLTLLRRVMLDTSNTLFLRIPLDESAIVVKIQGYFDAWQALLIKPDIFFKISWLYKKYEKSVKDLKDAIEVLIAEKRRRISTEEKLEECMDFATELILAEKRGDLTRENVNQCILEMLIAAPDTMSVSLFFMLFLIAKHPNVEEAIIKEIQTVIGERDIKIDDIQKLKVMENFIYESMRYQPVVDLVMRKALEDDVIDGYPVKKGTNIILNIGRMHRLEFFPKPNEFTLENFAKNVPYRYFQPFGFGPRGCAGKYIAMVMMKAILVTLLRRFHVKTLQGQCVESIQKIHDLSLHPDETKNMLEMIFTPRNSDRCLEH
As to the kind of experiment: Aromatase inhibition assay (DBF fluorometric substrate). Format: biochemical. The following applies: active defined as IC50 < 12.5 µM. As to the method: Aromatase enzyme was purchased from GENTEST, Woburn, MA01801, USA (Supersom human CYP19+oxidoreductase, baculovirus/insect cell-expressed; Product No. 456260). The aromatase inhibitory activity was performed using Human CYP19 enzymes and DBF as a fluorometric substrate as described by Stresser, et al.[41] with minor modifications. The mixture, containing 100 µL of cofactor/serial dilution buffer was pre-incubated in 37 °C for 10 min. […] After incubation at 37 °C for 30 min, the reaction was stopped by addition of 50 µL of 2.2 M NaOH. Fluorescence signal was monitored using an excitation wavelength of 490 nm and emission wavelength of 530 nm.

For data set [3], the system named is NCI60 human cell line panel. Briefly: NCI60 one-dose screen. Format: cell-based. The following applies: 10 µM single dose. As to the method:
The one-dose experimental protocol followed the method described in this literature.[28] First, all compounds were tested at a single concentration (10 µM) across the entire NCI60 panel. The results of this assay indicate the growth relative to no-drug control and the number of cells at time zero. This method allows for the detection of growth inhibition (values between 0 to 100) and lethality (value below 0).

In data set [4] the test system is L929 normal mouse fibroblast cell line. Briefly: Cytotoxicity MTT assay, L929. The format is cell-based. The following applies: IC50 (L929)/IC50 (T47D). As for the experimental part: as §1, §2
A short description of data set [5]: Cytotoxicity MTT assay, L929. Format: cell-based, mouse. As to conditions: mouse, L929 fibroblast cells; MTT, 48 hours. As for the experimental part: as §1, §2

`N.N.[Cl][Pt][Cl]` [Cisplatin, reference compound]: the half-inhibitory concentration (IC50) in data set [1] was over 100 µM.
In data set [2], `O=C(N/N=C/c1ccco1)c1[nH]c2ccc(Br)cc2c1-c1ccccc1` [Derivative 1a, reference compound] came in with an IC50 of 11.3 ± 1.7 µM.
Consider `O=C(N/N=C/c1cccs1)c1[nH]c2ccc(Br)cc2c1-c1ccccc1` [Derivative 2a, reference compound], for which, in data set [2], the IC50 is over 12.5 µM and the “aromatase inhibition” value is listed as “lacked aromatase inhibition”.
For the compound `CCOC(=O)c1cc[nH]c1/C=N/NC(=O)c1[nH]c2ccc(Br)cc2c1-c1ccccc1` [Derivative 3k, Ethyl (E)-2-((2-(5-bromo-3-phenyl-1H-indole-2-carbonyl)hydrazono)methyl)-1H-pyrrole-3-carboxylate], the “NCI mean (mean growth percentage over the panel)” value in data set [3] is recorded as 49%. For the same compound, the “Selectivity index (SI)” value in data set [4] is on record as 1.42. Besides, half-maximal inhibition in data set [5] (IC50 at 48 h) required 15 ± 8.9 µM. The IC50 in data set [1] (Homo sapiens, T47D) is 10.6 ± 1.1 µM; in data set [2], 0.018 ± 0.002 µM.
Turning to `O=C(O)c1ccc(/C=N/NC(=O)c2[nH]c3ccc(Br)cc3c2-c2ccccc2)[nH]1` [Derivative 3l, (E)-5-((2-(5-Bromo-3-phenyl-1H-indole-2-carbonyl)hydrazono)methyl)-1H-pyrrole-2-carboxylic acid], in data set [3], the “growth inhibition in the single dose experiment” value is “mild effects”. In data set [1], the “activity against T47D in two-dose screen” value is “weak activity”. In data set [2], the IC50 is over 12.5 µM and the “aromatase inhibition” value is “inactive against aromatase”.
Regarding `O=C(O)c1c[nH]c(/C=N/NC(=O)c2[nH]c3ccc(Br)cc3c2-c2ccccc2)c1` [Derivative 3m, (E)-5-((2-(5-Bromo-3-phenyl-1H-indole-2-carbonyl)hydrazono)methyl)-1H-pyrrole-3-carboxylic acid], in data set [3], the “growth inhibition in the single dose experiment” value is “mild effects”. Also, the “activity against T47D in two-dose screen” value in data set [1] is reported as “weak activity”. Also, in data set [2], the IC50 was over 12.5 µM and the “aromatase inhibition” value was “inactive against aromatase”.
`O=C(N/N=C/c1cc(C(=O)N2CCOCC2)c[nH]1)c1[nH]c2ccc(Br)cc2c1-c1ccccc1` [Derivative 3o, (E)-5-Bromo-N′-((4-(morpholine-4-carbonyl)-1H-pyrrol-2-yl)methylene)-3-phenyl-1H-indole-2-carbohydrazide]: the “NCI mean (mean growth percentage over the panel)” value in data set [3] is reported as 45%. Further, in data set [5], the midpoint of inhibition, the IC50 at 48 h, lay at 43.2 ± 9.9 µM. For the same compound, the half-maximal inhibitory concentration (IC50) in data set [1] (Homo sapiens, T47D) came to 14.9 ± 1 µM; in data set [2], 1.6 ± 0.4 µM.
On to `O=C(O)c1cc(/C=N/NC(=O)c2[nH]c3ccc(Br)cc3c2-c2ccccc2)c[nH]1` [Derivative 3w, (E)-4-((2-(5-Bromo-3-phenyl-1H-indole-2-carbonyl)hydrazono)methyl)-1H-pyrrole-2-carboxylic acid], for which the “activity against T47D in two-dose screen” value in data set [1] is “weak activity”. For the same compound, in data set [2], the 50% inhibitory concentration (IC50) is over 12.5 µM and the “aromatase inhibition” value is “inactive against aromatase”.
Regarding `O=C(N/N=C/c1c[nH]c(C(=O)N2CCOCC2)c1)c1[nH]c2ccc(Br)cc2c1-c1ccccc1` [Derivative 3x, (E)-5-Bromo-N′-((5-(morpholine-4-carbonyl)-1H-pyrrol-3-yl)methylene)-3-phenyl-1H-indole-2-carbohydrazide], the “activity against T47D in two-dose screen” value in data set [1] is recorded as “weak activity”. Besides, the IC50 in data set [2] is 3.7 ± 0.6 µM.
